Experimental data: ChEMBL document CHEMBL5252509, “In depth analysis of kinase cross screening data to identify chemical starting points for inhibition of the Nek family of kinases” (Medchemcomm, 2018)

Experiments:
[1] = target: T1, Serine/threonine-protein kinase Nek1 (Homo sapiens) (UniProt Q96PY6); test: Inhibition of NEK1 (unknown origin) at 10 uM relative to control
T1 sequence (whole entry): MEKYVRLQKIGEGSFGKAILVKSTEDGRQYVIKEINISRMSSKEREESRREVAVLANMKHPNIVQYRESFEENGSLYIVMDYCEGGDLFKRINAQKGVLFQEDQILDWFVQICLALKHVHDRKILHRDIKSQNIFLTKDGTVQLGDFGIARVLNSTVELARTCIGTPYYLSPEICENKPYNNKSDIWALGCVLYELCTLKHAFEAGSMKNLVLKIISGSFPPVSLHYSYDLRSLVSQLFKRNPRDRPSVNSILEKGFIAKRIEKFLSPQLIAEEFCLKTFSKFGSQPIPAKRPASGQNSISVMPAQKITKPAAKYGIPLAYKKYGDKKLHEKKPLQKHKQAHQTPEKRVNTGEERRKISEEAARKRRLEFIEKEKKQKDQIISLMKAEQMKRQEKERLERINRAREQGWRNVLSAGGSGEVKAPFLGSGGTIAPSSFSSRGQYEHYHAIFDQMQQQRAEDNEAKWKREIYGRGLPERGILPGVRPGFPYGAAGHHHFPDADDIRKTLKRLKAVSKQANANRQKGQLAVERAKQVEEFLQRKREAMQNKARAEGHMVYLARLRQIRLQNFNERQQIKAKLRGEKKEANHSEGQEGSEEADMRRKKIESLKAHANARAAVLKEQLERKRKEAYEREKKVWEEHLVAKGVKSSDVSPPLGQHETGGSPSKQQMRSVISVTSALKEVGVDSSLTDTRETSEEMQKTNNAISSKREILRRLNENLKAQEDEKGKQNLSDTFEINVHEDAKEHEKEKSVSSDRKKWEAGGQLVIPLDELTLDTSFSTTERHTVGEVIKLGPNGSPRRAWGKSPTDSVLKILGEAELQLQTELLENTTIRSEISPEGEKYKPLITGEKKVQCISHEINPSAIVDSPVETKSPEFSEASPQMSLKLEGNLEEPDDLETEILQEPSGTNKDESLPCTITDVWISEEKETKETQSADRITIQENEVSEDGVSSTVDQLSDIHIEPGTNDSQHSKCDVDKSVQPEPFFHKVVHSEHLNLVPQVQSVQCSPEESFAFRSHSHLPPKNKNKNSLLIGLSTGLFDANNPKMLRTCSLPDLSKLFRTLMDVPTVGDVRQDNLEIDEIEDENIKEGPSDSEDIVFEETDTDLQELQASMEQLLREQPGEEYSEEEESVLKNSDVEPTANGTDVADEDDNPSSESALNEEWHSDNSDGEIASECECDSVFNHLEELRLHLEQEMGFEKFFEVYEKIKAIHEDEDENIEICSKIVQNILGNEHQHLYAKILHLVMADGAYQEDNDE

[2] = target: T2, Serine/threonine-protein kinase Nek2 (Homo sapiens) (UniProt P51955); test: Inhibition of NEK2 (unknown origin) at 10 uM relative to control
T2 sequence (whole entry): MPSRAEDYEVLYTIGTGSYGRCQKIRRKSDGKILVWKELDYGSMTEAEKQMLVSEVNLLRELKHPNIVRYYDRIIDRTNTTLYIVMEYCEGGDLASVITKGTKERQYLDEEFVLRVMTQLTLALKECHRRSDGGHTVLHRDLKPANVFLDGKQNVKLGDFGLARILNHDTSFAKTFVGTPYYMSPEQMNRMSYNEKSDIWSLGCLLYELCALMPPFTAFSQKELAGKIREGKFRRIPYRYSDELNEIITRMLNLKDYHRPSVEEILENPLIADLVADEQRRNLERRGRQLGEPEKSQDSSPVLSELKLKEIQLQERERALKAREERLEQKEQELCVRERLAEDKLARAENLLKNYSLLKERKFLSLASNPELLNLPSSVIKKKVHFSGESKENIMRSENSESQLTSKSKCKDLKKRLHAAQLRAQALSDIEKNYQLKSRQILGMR

[3] = target: Serine/threonine-protein kinase Nek4 (Homo sapiens) (UniProt P51957); test: Inhibition of NEK4 (unknown origin) at 10 uM relative to control
Chain of Serine/threonine-protein kinase Nek4 (Homo sapiens) (P51957 whole entry, looked up): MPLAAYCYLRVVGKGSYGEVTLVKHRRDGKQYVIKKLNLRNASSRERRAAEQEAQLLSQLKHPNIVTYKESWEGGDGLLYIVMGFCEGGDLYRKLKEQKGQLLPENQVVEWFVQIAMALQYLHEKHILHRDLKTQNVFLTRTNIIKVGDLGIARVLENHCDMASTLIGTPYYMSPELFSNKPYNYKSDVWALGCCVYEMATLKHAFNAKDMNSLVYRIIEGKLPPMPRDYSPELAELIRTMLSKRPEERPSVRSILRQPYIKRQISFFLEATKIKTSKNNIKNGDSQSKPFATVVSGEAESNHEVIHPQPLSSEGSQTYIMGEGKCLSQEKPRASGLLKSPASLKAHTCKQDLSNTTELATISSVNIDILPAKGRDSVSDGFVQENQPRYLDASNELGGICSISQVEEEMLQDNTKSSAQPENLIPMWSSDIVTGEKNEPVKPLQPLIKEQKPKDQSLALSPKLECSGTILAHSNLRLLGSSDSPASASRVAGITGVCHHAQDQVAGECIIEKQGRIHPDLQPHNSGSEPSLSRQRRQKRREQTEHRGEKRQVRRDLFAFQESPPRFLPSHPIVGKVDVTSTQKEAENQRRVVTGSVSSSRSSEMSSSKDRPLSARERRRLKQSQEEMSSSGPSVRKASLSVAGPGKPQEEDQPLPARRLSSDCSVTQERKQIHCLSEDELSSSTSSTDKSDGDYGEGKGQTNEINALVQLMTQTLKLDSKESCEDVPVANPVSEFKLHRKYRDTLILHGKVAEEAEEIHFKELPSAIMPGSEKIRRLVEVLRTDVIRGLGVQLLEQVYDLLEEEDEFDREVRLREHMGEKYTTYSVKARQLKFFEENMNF

[4] = target: Serine/threonine-protein kinase Nek6 (Homo sapiens) (UniProt Q9HC98); test: Inhibition of NEK6 (unknown origin) at 10 uM relative to control
Chain of Serine/threonine-protein kinase Nek6 (Homo sapiens) (Q9HC98 whole entry): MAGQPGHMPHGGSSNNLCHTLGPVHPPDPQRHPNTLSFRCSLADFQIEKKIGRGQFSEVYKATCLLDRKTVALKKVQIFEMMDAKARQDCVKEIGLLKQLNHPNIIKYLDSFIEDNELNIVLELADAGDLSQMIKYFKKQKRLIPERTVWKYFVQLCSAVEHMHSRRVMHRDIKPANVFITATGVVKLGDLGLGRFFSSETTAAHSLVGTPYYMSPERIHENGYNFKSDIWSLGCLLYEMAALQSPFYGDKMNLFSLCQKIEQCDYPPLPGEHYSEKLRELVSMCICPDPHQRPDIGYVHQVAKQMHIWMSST

[5] = target: T3, Serine/threonine-protein kinase Nek9 (Homo sapiens) (UniProt Q8TD19); test: Inhibition of NEK9 (unknown origin) at 10 uM relative to control
T3 sequence (whole entry): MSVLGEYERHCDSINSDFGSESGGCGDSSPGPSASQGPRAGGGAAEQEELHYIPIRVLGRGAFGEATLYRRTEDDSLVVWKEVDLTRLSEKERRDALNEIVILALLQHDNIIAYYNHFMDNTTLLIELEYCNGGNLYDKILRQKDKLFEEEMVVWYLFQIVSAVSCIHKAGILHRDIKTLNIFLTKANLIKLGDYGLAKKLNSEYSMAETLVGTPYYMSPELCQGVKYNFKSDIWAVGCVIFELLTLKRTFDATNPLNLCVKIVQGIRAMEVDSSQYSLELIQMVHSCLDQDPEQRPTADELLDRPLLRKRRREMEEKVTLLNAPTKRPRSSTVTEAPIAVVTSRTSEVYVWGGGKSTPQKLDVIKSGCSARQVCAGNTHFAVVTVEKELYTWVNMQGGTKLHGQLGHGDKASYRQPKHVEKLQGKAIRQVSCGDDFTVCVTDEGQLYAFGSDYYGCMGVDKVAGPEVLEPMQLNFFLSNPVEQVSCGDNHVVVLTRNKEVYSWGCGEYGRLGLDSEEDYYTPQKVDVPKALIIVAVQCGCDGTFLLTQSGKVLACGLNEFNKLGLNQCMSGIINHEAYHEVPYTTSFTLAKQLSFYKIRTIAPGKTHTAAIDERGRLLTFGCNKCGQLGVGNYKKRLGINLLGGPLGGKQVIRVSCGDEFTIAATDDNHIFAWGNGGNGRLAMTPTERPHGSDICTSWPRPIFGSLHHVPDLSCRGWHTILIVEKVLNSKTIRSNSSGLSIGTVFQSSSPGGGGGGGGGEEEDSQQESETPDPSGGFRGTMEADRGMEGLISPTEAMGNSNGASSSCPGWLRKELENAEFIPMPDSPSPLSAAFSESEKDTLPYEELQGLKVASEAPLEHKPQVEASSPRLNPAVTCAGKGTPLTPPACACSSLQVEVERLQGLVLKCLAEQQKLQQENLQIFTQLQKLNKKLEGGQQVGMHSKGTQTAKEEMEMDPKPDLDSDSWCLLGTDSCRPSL

Row | Compound | % control [1] [%] | % control [2] [%] | % control [3] [%] | % control [4] [%] | % control [5] [%]
1 | Cc1cc(NC(=O)c2cccc(NC(=O)/C=C/CN(C)C)c2)ccc1Nc1nccc(-c2cccnc2)n1 | 81 | 100 | 79 | 100 | 100
2 | Fc1cc(-c2cc[nH]/c(=N/c3ccc(-n4cnc(N5CCOCC5)n4)cc3)n2)cc(N2CCOCC2)c1 | 57 | 94 | 100 | 76 | 63
3 | O=C1NC(=O)/C(=C/c2ccc3nccc(-c4ccncc4)c3c2)S1 | 47 | 64 | 96 | 81 | 95

Continued, in another order:

Row | % control [1] [%] | % control [2] [%] | % control [3] [%] | % control [4] [%] | Compound | % control [5] [%]
4 | 100 | 100 | 100 | 44 | Cc1ccc(NC(=O)c2ccc(NC(=O)/C=C/CN(C)C)cc2)cc1Nc1nccc(-c2cccnc2)n1 | 100
5 | 100 | 93 | 100 | 100 | CN(C)C/C=C/C(=O)Nc1cccc(C(=O)Nc2ccc(Nc3nccc(-c4c(-c5ccccc5)nn5ccccc45)n3)cc2)c1 | 100
6 | 100 | 99 | 100 | 100 | CN(C)C/C=C/C(=O)Nc1cccc(C(=O)Nc2ccc(Nc3nccc(/C(C#N)=C4\Nc5ccccc5S4)n3)cc2)c1 | 63
7 | 77 | 86 | 83 | 17 | CN(C)C/C=C/C(=O)Nc1cccc(C(=O)Nc2ccc(Nc3nccc(-c4cccnc4)n3)cc2)c1 | 48
8 | 63 | 1.1 | 100 | 2.8 | CN(C)C/C=C/C(=O)Nc1ccc(C(=O)Nc2cccc(Nc3nccc(-c4cccnc4)n3)c2)cc1 | 22
